The nature of the series: PAMPA-GI assay. Also noted: Papp at 2 h: dose or concentration left out as unconfirmed. The note with it: for Papp at 2 h: PAMPA. As for the experimental part: The relative passive transcellular diffusion of compounds, expressed as permeability coefficient (Pe), was determined with a permeability equation. ^[45] The permeabilities of 1, 2, and 1400 W were determined at pH 5.0, 6.5, and 7.4 to mimic the physiological conditions of the GI tract (Table 1). […] As the new prodrug was designed for the potential treatment of neurodegenerative diseases, an important parameter is its capability to cross the BBB.
Each donor filtration plate well, carefully impregnated with 5 µL of this solution, was added of 150 μL of […] test compound buffer solutions (phosphate buffer for pH 7.4 and pH 6.5 and hydrochloric acid buffer for pH 1.4). Subsequently, the drug‐filled donor plate was placed onto the acceptor plate prefilled with the same buffer (300 μL) as the acceptor solution. Once replaced the plate lid, the resulting assembled donor‐acceptor plates were incubated at room temperature for 2 h. The concentration in the acceptor and donor solutions were determined by HPLC. The Pe was determined as previously reported. ^[47]
For orientation: In PAMPA a lipid-coated filter parts donor from acceptor wells.

As to `C/C(=N\O)NC(c1ccccc1)c1ccccc1` [Compound 2, (1E)‐N‐(diphenylmethyl)‐N′‐hydroxyethanimidamide], the apparent permeability coefficient (Papp) at 2 h (pH 1.4) was found to be 0.66 ×10⁻⁶ cm/s, the Papp at 2 h (pH 6.5) turned out to be 1.57 ×10⁻⁶ cm/s and the Papp at 2 h (pH 7.4) stood at 2.03 ×10⁻⁶ cm/s. The “PAMPA-GI Pe (bound stated in text)” value reads like this: (pH 6.5) > 1.5×10^−6; (pH 7.4) > 1.5×10^−6.

What is called Papp is a coefficient for how fast a substance crosses the barrier.

The values are drawn from PMC7756445, “A Novel Prodrug of a nNOS Inhibitor with Improved Pharmacokinetic Potential” (Chemmedchem, 2020).
